Results on 19 compounds are retold here after patent US20240116988A1, “ANTI-ROR1 MACROCYCLIC PEPTIDES AND COMPOSITIONS” (BRISTOL-MYERS SQUIBB COMPANY, priority 2022, published 2024).

Positions of bridges follow the written chain, without caps; N, C: chain ends. Non-standard residues stand in square brackets, D forms with d. Residues, ends and D or L forms follow the SMILES beside them. ξ: configuration not given here. NMeF = CN[C@@H](Cc1ccccc1)C(=O)O; Ile(3ξ) = CCC(C)[C@H](N)C(=O)O; ξY = NC(Cc1ccc(O)cc1)C(=O)O; NMeA = CN[C@@H](C)C(=O)O

This assay deals with T1, human ROR1 (Homo sapiens, UniProt Q01973).
T1 construct: host or cells: HEK 293T cells, Tet-on system induced with doxycycline
The assay can be described thus: ROR1 high content cell-based binding assay. Particulars: read-out: ROR1 Binding 293T Human HC Cell Based Assay IC50. The method in brief: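 Doxycycline-induced 293T cells expressing human ROR1, seeded overnight, were treated with compound plus 5-FAM-labeled ROR1-binding probe peptide (30 nM final) for 1 h at 37 °C. After washing and formaldehyde/Hoechst fixation, cell-bound probe fluorescence was read by high-content imaging.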

T1 sequence (Q01973 30-937): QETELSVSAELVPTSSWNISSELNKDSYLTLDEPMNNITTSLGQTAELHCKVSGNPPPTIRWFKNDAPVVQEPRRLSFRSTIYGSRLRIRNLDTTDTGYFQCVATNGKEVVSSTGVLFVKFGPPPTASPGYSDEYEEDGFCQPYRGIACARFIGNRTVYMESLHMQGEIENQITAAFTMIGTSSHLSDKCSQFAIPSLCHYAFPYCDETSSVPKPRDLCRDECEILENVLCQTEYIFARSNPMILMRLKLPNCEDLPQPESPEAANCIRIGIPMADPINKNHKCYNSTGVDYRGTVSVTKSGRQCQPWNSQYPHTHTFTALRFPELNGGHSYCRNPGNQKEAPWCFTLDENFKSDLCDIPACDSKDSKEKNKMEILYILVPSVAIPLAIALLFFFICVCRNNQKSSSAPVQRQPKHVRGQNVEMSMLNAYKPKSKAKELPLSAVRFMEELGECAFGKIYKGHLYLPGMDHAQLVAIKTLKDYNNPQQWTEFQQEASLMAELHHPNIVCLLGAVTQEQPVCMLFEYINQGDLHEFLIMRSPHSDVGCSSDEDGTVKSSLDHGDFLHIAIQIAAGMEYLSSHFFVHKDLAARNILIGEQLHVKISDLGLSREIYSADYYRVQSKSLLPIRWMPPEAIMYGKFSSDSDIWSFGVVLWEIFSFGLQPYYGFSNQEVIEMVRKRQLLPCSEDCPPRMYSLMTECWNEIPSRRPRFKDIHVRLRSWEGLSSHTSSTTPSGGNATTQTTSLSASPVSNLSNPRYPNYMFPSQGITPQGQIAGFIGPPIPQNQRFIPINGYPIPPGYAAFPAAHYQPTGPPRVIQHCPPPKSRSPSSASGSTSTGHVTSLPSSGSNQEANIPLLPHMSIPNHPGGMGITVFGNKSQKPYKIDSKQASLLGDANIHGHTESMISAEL

Consider `CC(C)C[C@@H]1NC(=O)[C@H](Cc2ccc(O)cc2)NC(=O)[C@H](Cc2ccccc2)NC(=O)CSC[C@@H](C(=O)NCC(N)=O)NC(=O)[C@H](CC(C)C)NC(=O)[C@H](Cc2ccccc2)N(C)C(=O)[C@H](Cc2ccc(O)cc2)NC(=O)[C@H](Cc2c[nH]c3ccccc23)NC(=O)[C@H](CCCNC(=N)N)NC(=O)[C@H](CO)NC(=O)[C@H](Cc2ccc(O)cc2)NC(=O)[C@H](C(C)C)NC1=O` [Example 1047] ({CH2CO}-FYLVYSRWY[NMeF]LCG-NH2; thioether N-12), for which the IC50 was 243 nM.

In the case of `CC(C)C[C@@H]1NC(=O)[C@H](Cc2ccc(O)cc2)NC(=O)[C@H](Cc2ccccc2)NC(=O)CSC[C@@H](C(=O)NCC(N)=O)NC(=O)[C@H](CC(C)C)NC(=O)[C@H](Cc2ccccc2)N(C)C(=O)[C@H](Cc2ccc(O)cc2)NC(=O)[C@H](Cc2c[nH]c3ccccc23)NC(=O)CNC(=O)[C@@H](C)NC(=O)[C@H](Cc2ccc(O)cc2)NC(=O)[C@H](C(C)C)NC1=O` [Example 1048] ({CH2CO}-FYLVY[dA]GWY[NMeF]LCG-NH2; thioether N-12), the IC50 came out at 666 nM.

For `CC[C@H](C)[C@@H]1NC(=O)[C@H](Cc2ccccc2)NC(=O)CSC[C@@H](C(N)=O)NC(=O)[C@H](C)NC(=O)[C@H](Cc2ccc(O)cc2)NC(=O)[C@H](Cc2ccc(O)cc2)NC(=O)[C@H](Cc2c[nH]c3ccccc23)NC(=O)CNC(=O)[C@H](Cc2ccc(O)cc2)NC(=O)[C@H](CCCNC(=N)N)NC(=O)[C@H](C(C)C)NC(=O)[C@H](Cc2c[nH]c3ccccc23)NC1=O` [Example 1049] ({CH2CO}-FIWVRYGWYYAC-NH2; thioether N-12), the IC50 worked out at 19 nM.

With `CCC(C)[C@@H]1NC(=O)[C@H](Cc2c[nH]c3ccccc23)NC(=O)[C@H](Cc2ccccc2)NC(=O)[C@H](Cc2ccc(O)cc2)NC(=O)[C@@H](Cc2ccccc2)NC(=O)CSC[C@@H](C(N)=O)NC(=O)[C@H](C)NC(=O)[C@H](C(C)CC)NC(=O)[C@H](C(C)C)NC(=O)[C@H](Cc2c[nH]c3ccccc23)NC(=O)[C@H](CCCNC(=N)N)NC(=O)CNC1=O` (stereo partly shown) [Example 1050] ({CH2CO}-[dF]YFW[Ile(3ξ)]GRWV[Ile(3ξ)]AC-NH2; thioether N-12), the IC50 was found to be 15 nM.

Regarding `CC(C)C[C@@H]1NC(=O)[C@H](CCCNC(=N)N)NC(=O)[C@H](Cc2ccccc2)NC(=O)CSC[C@@H](C(=O)NCC(N)=O)NC(=O)[C@H](CC(C)C)NC(=O)[C@H](Cc2ccccc2)N(C)C(=O)[C@H](Cc2ccc(O)cc2)NC(=O)[C@H](Cc2c[nH]c3ccccc23)NC(=O)CNC(=O)[C@H](CO)NC(=O)[C@H](Cc2ccc(O)cc2)NC(=O)[C@H](C(C)C)NC1=O` [Example 1051] ({CH2CO}-FRLVYSGWY[NMeF]LCG-NH2; thioether N-12), the IC50 came to 172 nM.

Regarding `CC(C)C[C@@H]1NC(=O)[C@H](Cc2ccccc2)N(C)C(=O)[C@H](Cc2ccc(O)cc2)NC(=O)[C@H](Cc2c[nH]c3ccccc23)NC(=O)CNC(=O)[C@H](CO)NC(=O)[C@H](Cc2ccc(O)cc2)NC(=O)[C@H](C(C)C)NC(=O)[C@H](CCC(=O)O)NC(=O)[C@H](Cc2ccc(O)cc2)NC(=O)[C@H](Cc2ccccc2)NC(=O)CSC[C@@H](C(=O)NCC(N)=O)NC1=O` [Example 1052] ({CH2CO}-FYEVYSGWY[NMeF]LCG-NH2; thioether N-12), the IC50 was 367 nM.

Consider `CC(C)C[C@@H]1NC(=O)[C@H](Cc2ccc(O)cc2)NC(=O)[C@H](Cc2ccccc2)NC(=O)CSC[C@@H](C(=O)NCC(N)=O)NC(=O)[C@H](CC(C)C)NC(=O)[C@H](Cc2ccccc2)N(C)C(=O)[C@H](Cc2ccc(O)cc2)NC(=O)[C@H](Cc2c[nH]c3ccccc23)NC(=O)[C@H](CCC(=O)O)NC(=O)[C@H](CO)NC(=O)[C@H](Cc2ccc(O)cc2)NC(=O)[C@H](C(C)C)NC1=O` [Example 1053] ({CH2CO}-FYLVYSEWY[NMeF]LCG-NH2; thioether N-12), for which the IC50 turned out to be 760 nM.

On to `CC(C)C[C@@H]1NC(=O)[C@H](Cc2ccc(O)cc2)NC(=O)[C@H](Cc2ccccc2)NC(=O)CSC[C@@H](C(=O)NCC(N)=O)NC(=O)[C@H](CC(C)C)NC(=O)[C@H](Cc2ccccc2)N(C)C(=O)[C@H](Cc2ccc(O)cc2)NC(=O)[C@H](Cc2c[nH]c3ccccc23)NC(=O)CNC(=O)[C@H](Cc2c[nH]c3ccccc23)NC(=O)[C@H](CCCNC(=N)N)NC(=O)[C@H](C(C)C)NC1=O` [Example 1054] ({CH2CO}-FYLVRWGWY[NMeF]LCG-NH2; thioether N-12), for which the IC50 was 35 nM.

Turning to `CC(C)C[C@@H]1NC(=O)[C@H](Cc2ccc(O)cc2)NC(=O)[C@H](Cc2ccccc2)NC(=O)CSC[C@@H](C(=O)NCC(N)=O)NC(=O)[C@H](CC(C)C)NC(=O)[C@H](Cc2ccccc2)N(C)C(=O)[C@H](Cc2ccc(O)cc2)NC(=O)[C@H](Cc2c[nH]c3ccccc23)NC(=O)CNC(=O)[C@H](Cc2ccc(O)cc2)NC(=O)[C@H](CCCNC(=N)N)NC(=O)[C@H](C(C)C)NC1=O` [Example 1055] ({CH2CO}-FYLVRYGWY[NMeF]LCG-NH2; thioether N-12), the IC50 is 29 nM.

For `CC(C)C[C@@H]1NC(=O)[C@H](Cc2ccc(O)cc2)NC(=O)[C@H](Cc2ccccc2)NC(=O)CSC[C@@H](C(=O)NCC(N)=O)NC(=O)[C@H](CC(C)C)NC(=O)[C@H](Cc2ccccc2)N(C)C(=O)[C@H](Cc2ccc(O)cc2)NC(=O)[C@H](Cc2c[nH]c3ccccc23)NC(=O)[C@H](CCCCN)NC(=O)[C@H](CO)NC(=O)[C@H](Cc2ccc(O)cc2)NC(=O)[C@H](C(C)C)NC1=O` [Example 1056] ({CH2CO}-FYLVYSKWY[NMeF]LCG-NH2; thioether N-12), the IC50 came to 740 nM.

Regarding `CC(C)C[C@@H]1NC(=O)[C@H](Cc2ccccc2)NC(=O)CSC[C@@H](C(=O)NCC(N)=O)NC(=O)[C@H](CC(C)C)NC(=O)[C@H](Cc2ccccc2)N(C)C(=O)[C@H](Cc2ccc(O)cc2)NC(=O)[C@H](Cc2c[nH]c3ccccc23)NC(=O)CNC(=O)[C@H](CO)NC(=O)[C@H](Cc2ccc(O)cc2)NC(=O)[C@H](C(C)C)NC(=O)[C@H](Cc2c[nH]c3ccccc23)NC1=O` [Example 1058] ({CH2CO}-FLWVYSGWY[NMeF]LCG-NH2; thioether N-12), the IC50 is 755 nM.

Consider `CC(C)C[C@@H]1NC(=O)[C@H](Cc2ccc(O)cc2)NC(=O)[C@H](Cc2ccccc2)NC(=O)CSC[C@@H](C(=O)NCC(N)=O)NC(=O)[C@H](CC(C)C)NC(=O)[C@H](Cc2ccccc2)N(C)C(=O)C(Cc2ccc(O)cc2)NC(=O)[C@H](Cc2c[nH]c3ccccc23)NC(=O)[C@@H](C)NC(=O)[C@H](CO)NC(=O)[C@H](Cc2ccc(O)cc2)NC(=O)[C@H](C(C)C)NC1=O` (stereo partly shown) [Example 1059] ({CH2CO}-FYLVYS[dA]W[ξY][NMeF]LCG-NH2; thioether N-12), for which the IC50 amounted to 93 nM.

As to `CC(C)C[C@@H]1NC(=O)[C@H](Cc2ccc(O)cc2)NC(=O)[C@H](Cc2ccccc2)NC(=O)CSC[C@@H](C(=O)NCC(N)=O)NC(=O)[C@H](CC(C)C)NC(=O)[C@H](Cc2ccccc2)N(C)C(=O)[C@H](Cc2ccc(O)cc2)NC(=O)[C@H](Cc2c[nH]c3ccccc23)NC(=O)CNC(=O)[C@H](CO)NC(=O)[C@@H](C)NC(=O)[C@H](C(C)C)NC1=O` [Example 1060] ({CH2CO}-FYLV[dA]SGWY[NMeF]LCG-NH2; thioether N-12), the IC50 came to 30 nM.

Consider `CC(C)C[C@@H]1NC(=O)[C@H](Cc2ccc(O)cc2)NC(=O)[C@H](Cc2ccccc2)NC(=O)CSC[C@@H](C(=O)NCC(N)=O)NC(=O)[C@@H](C)NC(=O)[C@H](Cc2ccccc2)N(C)C(=O)[C@H](Cc2ccc(O)cc2)NC(=O)[C@H](Cc2c[nH]c3ccccc23)NC(=O)CNC(=O)[C@H](CO)NC(=O)[C@H](Cc2ccc(O)cc2)NC(=O)[C@H](C(C)C)NC1=O` [Example 1061] ({CH2CO}-FYLVYSGWY[NMeF][dA]CG-NH2; thioether N-12), for which the IC50 was 645 nM.

Consider `CC(C)C[C@@H]1NC(=O)[C@H](Cc2ccccc2)N(C)C(=O)[C@H](Cc2ccc(O)cc2)NC(=O)[C@H](Cc2c[nH]c3ccccc23)NC(=O)CNC(=O)[C@H](CO)NC(=O)[C@H](Cc2ccc(O)cc2)NC(=O)[C@H](C(C)C)NC(=O)[C@H](C)N(C)C(=O)[C@H](Cc2ccc(O)cc2)NC(=O)[C@H](Cc2ccccc2)NC(=O)CSC[C@@H](C(=O)NCC(N)=O)NC1=O` [Example 1062] ({CH2CO}-FY[NMeA]VYSGWY[NMeF]LCG-NH2; thioether N-12), for which the IC50 amounted to 20 nM.

As for `CC(C)C[C@@H]1NC(=O)[C@H](Cc2ccc(O)cc2)NC(=O)[C@H](C)N(C)C(=O)CSC[C@@H](C(=O)NCC(N)=O)NC(=O)[C@H](CC(C)C)NC(=O)[C@H](Cc2ccccc2)N(C)C(=O)[C@H](Cc2ccc(O)cc2)NC(=O)[C@H](Cc2c[nH]c3ccccc23)NC(=O)CNC(=O)[C@H](CO)NC(=O)[C@H](Cc2ccc(O)cc2)NC(=O)[C@H](C(C)C)NC1=O` [Example 1063] ({CH2CO}-[NMeA]YLVYSGWY[NMeF]LCG-NH2; thioether N-12), the IC50 was found to be 576 nM.

With `CC(C)C[C@@H]1NC(=O)[C@H](Cc2ccc(O)cc2)NC(=O)[C@H](Cc2ccccc2)NC(=O)CSC[C@@H](C(=O)NCC(N)=O)NC(=O)[C@H](C)N(C)C(=O)[C@H](Cc2ccccc2)N(C)C(=O)[C@H](Cc2ccc(O)cc2)NC(=O)[C@H](Cc2c[nH]c3ccccc23)NC(=O)CNC(=O)[C@H](CO)NC(=O)[C@H](Cc2ccc(O)cc2)NC(=O)[C@H](C(C)C)NC1=O` [Example 1064] ({CH2CO}-FYLVYSGWY[NMeF][NMeA]CG-NH2; thioether N-12), the IC50 stood at 199 nM.

In the case of `CC(C)C[C@@H]1NC(=O)[C@H](Cc2ccc(O)cc2)NC(=O)[C@H](Cc2ccccc2)NC(=O)CSC[C@@H](C(=O)NCC(N)=O)NC(=O)CNC(=O)[C@H](Cc2ccccc2)N(C)C(=O)[C@H](Cc2ccc(O)cc2)NC(=O)[C@H](Cc2c[nH]c3ccccc23)NC(=O)CNC(=O)[C@H](CO)NC(=O)[C@H](Cc2ccc(O)cc2)NC(=O)[C@H](C(C)C)NC1=O` [Example 1065] ({CH2CO}-FYLVYSGWY[NMeF]GCG-NH2; thioether N-12), the IC50 was 22 nM.

With `CC(C)C[C@@H]1NC(=O)[C@H](Cc2ccccc2)N(C)C(=O)[C@H](Cc2ccc(O)cc2)NC(=O)[C@H](Cc2c[nH]c3ccccc23)NC(=O)CNC(=O)[C@H](CO)NC(=O)[C@H](Cc2ccc(O)cc2)NC(=O)[C@H](C(C)C)NC(=O)[C@@H]2CCCN2C(=O)[C@H](Cc2ccc(O)cc2)NC(=O)[C@H](Cc2ccccc2)NC(=O)CSC[C@@H](C(=O)NCC(N)=O)NC1=O` [Example 1066] ({CH2CO}-FYPVYSGWY[NMeF]LCG-NH2; thioether N-12), the IC50 turned out to be 5 nM.

As usually defined, the IC50 is the midpoint of a concentration-inhibition curve.
